Laboratory results: patent US11512091B2, “Crystal of benzoxazole derivative” (MEIJI SEIKA PHARMA CO., LTD., priority 2018, dated 2022)

Assays:
[1] = Stability test (storage of crystals, chemical purity by HPLC); type: physicochemical; settings: for chemical stability (in words): thermal stability test, photostability test, accelerated stability test
Procedure: The I type crystal and the II type crystal of the compound represented by formula (1) were put in glass bottles (in about 300 mg each) and stored under various conditions. After the storage period, the chemical purity of the samples taken out was measured by HPLC. The conditions of each test were as follows.
Thermal stability test: 60° C., hermetically sealed, a period of 3 weeks
Photostability test: 25° C., 1.2 million lux hours (2,000 lux, for 25 days)
Accelerated stability test (hermetically sealed): 40° C., 75% RH*, a period of 1 month
Accelerated stability test (opened): 40° C., 75% RH*, a period of 1 month
As the result of evaluation of each stability, the amount of the compound represented by formula (1) contained in the crystal is presented in Table 1 as a residual ratio (a HPLC area percentage ratio to the initial value, expressed in percentage).

[2] = Hygroscopicity test (isothermal water vapor adsorption, DVS); type: physicochemical; settings: at 95% RH, 25° C., relative to weight equilibrium value at 0% RH
Procedure: Isothermal adsorption measurement of the I type crystal and the II type crystal of the compound represented by formula (1) was performed, using a water vapor adsorption measurement instrument (available from Surface Measurement Systems Ltd., DVS ADVANTAGE 1) (with a sample of about 10 mg, at 25° C., at from 0% RH through 95% RH). As the result of evaluation of hygroscopicity, a weight increase rate at 95% RH (weight increase from initial value/initial value×100, *initial value: weight equilibrium value at 0% RH) is presented in Table 2.

PDE4 = assay: Evaluation of PDE4 inhibition (Scintillation Proximity Assay); type: biochemical; settings: SPA, [3H]-cAMP, room temperature 120 minutes; read-out: PDE4 inhibiting activity (the concentration at an inhibition rate of 50%)
Procedure: The PDE4 inhibiting activity was measured in the following manner, employing Scintillation Proximity Assay (SPA). The specimen compound dissolved in dimethyl sulfoxide and diluted 10 fold with a buffer solution for reaction containing 50 mM Tris-HCl (pH of 7.4), 8.3 mMMgCl2, 1.7 mM EGTA, and 3 mg/mL bovine serum albumin (BSA) was added in 10 microliters in a 96-well assay plate. After PDE4 diluted 375 fold with the buffer solution for reaction was further added in 50 microliters, a [2,8-^3H]-Adenosine-3′,5′-cyclic phosphate triethylammonium salt diluted 1,000 fold with the buffer solution for reaction was added in 40 microliters, and the resultant was left to stand still at room temperature for 120 minutes. […] Subsequently, radioactivity was measured with a liquid scintillation counter for a 96-well plate. The inhibition rate of the compound represented by formula (1) to a control was calculated according to the following calculation formula, where the blank was prepared as the buffer solution for reaction only, with no enzyme preparation, and the control was prepared with the enzyme preparation and with only dimethyl sulfoxide instead of the specimen solution. […]

[3] = Accelerated stability test (hermetically sealed): 40° C., 75% RH, 1 month
[4] = Accelerated stability test (opened): 40° C., 75% RH, 1 month
[5] = Photostability test: 25° C., 1.2 million lux hours (2,000 lux, 25 days)
[6] = Thermal stability test: 60° C., hermetically sealed, 3 weeks

In the case of `CC(C)(O)C(F)(F)Oc1ccc(-c2nccs2)c2oc(N3CC4CC(C3)N4)nc12` [I type crystal, 1-((2-(3,6-diazabicyclo[3.1.1]heptan-3-yl)-7-(thiazol-2-yl)benzo[d]oxazol-4-yl)oxy)-1,1-difluoro-2-methylpropan-2-ol], the “Residual ratio (%) of compound represented by formula (1)” value (shortened to “Residual ratio (%)”) [1, 3] is reported as 100.1%, the “Residual ratio (%)” value [1, 4] is reported as 100.1% and the “Residual ratio (%)” value ([1]; Initial value) is reported as 100.0%. The “Residual ratio (%)” value [1, 5] was 100.1%, the “Residual ratio (%)” value [1, 6] was 99.8% and the “chemical stability (in words)” value [1] was “sufficient chemical stability”. For the same molecule, the “Weight increase rate (%)” value [2] was 0.6%.
In the case of `CC(C)(O)C(F)(F)Oc1ccc(-c2nccs2)c2oc(N3CC4CC(C3)N4)nc12` [II type crystal, 1-((2-(3,6-diazabicyclo[3.1.1]heptan-3-yl)-7-(thiazol-2-yl)benzo[d]oxazol-4-yl)oxy)-1,1-difluoro-2-methylpropan-2-ol], the “Residual ratio (%)” value [1, 3] is reported as 100.1%, the “Residual ratio (%)” value [1, 4] is reported as 100.0% and the “Residual ratio (%)” value ([1]; Initial value) is reported as 100.0%. The “Residual ratio (%)” value [1, 5] was 99.5%, the “Residual ratio (%)” value [1, 6] was 100.0% and the “chemical stability (in words)” value [1] was “sufficient chemical stability”. The “Weight increase rate (%)” value [2] was 10.7%.
With `CC(C)(O)C(F)(F)Oc1ccc(-c2nccs2)c2oc(N3CC4CC(C3)N4)nc12` [compound represented by formula (1), 1-((2-(3,6-diazabicyclo[3.1.1]heptan-3-yl)-7-(thiazol-2-yl)benzo[d]oxazol-4-yl)oxy)-1,1-difluoro-2-methylpropan-2-ol] the IC50 (PDE4) was less than 100 nM.
